Assays:
Format in all cases: in vivo
[1] = system: barnyardgrass (Echinochloa crus-galli); assay: Test A pre-/postemergence plant response
Description: (§1) Seeds of barnyardgrass (Echinochloa crus-galli), large crabgrass (Digitaria sanguinalis), giant foxtail (Setaria faberii), morningglory (Ipomoea spp.), pigweed (Amaranthus retroflexus), velvetleaf (Abutilon theophrasti), wheat (Triticum aestivum) and corn (Zea mays) were planted into a blend of loam soil and sand and treated preemergence with a directed soil spray using test chemicals formulated in a non-phytotoxic solvent mixture which included a surfactant. At the same time these species were also treated with postemergence applications of test compounds formulated in the same manner.
(§2) Plants ranged in height from two to ten cm and were in the one- to two-leaf stage for the postemergence treatment. Treated plants and untreated controls were maintained in a greenhouse for approximately ten days, after which time all treated plants were compared to untreated controls and visually evaluated for injury. Plant response ratings, summarized in Table A, are based on a 0 to 100 scale where 0 is no effect and 100 is complete control. A dash (-) response means no test result.

corn (Zea mays) = assay: Test A pre-/postemergence plant response
Description: as §1, §2

[2] = system: giant foxtail (Setaria faberii); assay: Test A pre-/postemergence plant response
Description: as §1, §2

[3] = system: large crabgrass (Digitaria sanguinalis); assay: Test A pre-/postemergence plant response
Description: as §1, §2

[4] = system: morningglory (Ipomoea spp.); assay: Test A pre-/postemergence plant response
Description: as §1, §2

[5] = system: pigweed (Amaranthus retroflexus); assay: Test A pre-/postemergence plant response
Description: as §1, §2

[6] = system: velvetleaf (Abutilon theophrasti); assay: Test A pre-/postemergence plant response
Description: as §1, §2

[7] = system: wheat (Triticum aestivum); assay: Test A pre-/postemergence plant response
Description: as §1, §2

[8] = system: barnyardgrass (Echinochloa crus-galli); assay: Test B flooded paddy test; settings: for Plant response rating, Flood, Barnyardgrass: 250 g ai/ha, flooded paddy test, visual rating on 0 to 100 scale (0 no effect, 100 complete control) after 13 to 15 days; for Plant response rating, Barnyardgrass: Flood (flooded paddy test), 13 to 15 days; for Barnyardgrass plant response rating: Flood, 31 g ai/ha, scale 0 to 100 (0 no effect, 100 complete control)
Summary of the method: (§3)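 Visual scores run from 0 (no effect) to 100 (complete control), assigned by comparison with controls 13 to 15 days after treatment. Test compounds went straight into water standing 3 cm above the soil, around plants at the 2-leaf stage kept in a greenhouse.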

[9] = system: ducksalad (Heteranthera limosa); assay: Test B flooded paddy test; settings: for Plant response rating, Flood, Ducksalad: 250 g ai/ha, flooded paddy test, visual rating on 0 to 100 scale (0 no effect, 100 complete control) after 13 to 15 days; for Plant response rating, Ducksalad: Flood (flooded paddy test), 13 to 15 days; for Ducksalad plant response rating: Flood, 31 g ai/ha, scale 0 to 100 (0 no effect, 100 complete control)
Summary of the method: as §3

rice (Oryza sativa) = assay: Test B flooded paddy test; settings: for Plant response rating, Flood, Rice: 250 g ai/ha, flooded paddy test, visual rating on 0 to 100 scale (0 no effect, 100 complete control) after 13 to 15 days; for Plant response rating, Rice: Flood (flooded paddy test), 13 to 15 days; for Rice plant response rating: Flood, 31 g ai/ha, scale 0 to 100 (0 no effect, 100 complete control)
Summary of the method: as §3

[10] = system: umbrella sedge (Cyperus difformis); assay: Test B flooded paddy test; settings: for Plant response rating, Flood, Sedge, Umbrella: 250 g ai/ha, flooded paddy test, visual rating on 0 to 100 scale (0 no effect, 100 complete control) after 13 to 15 days; for Plant response rating, Sedge, Umbrella: Flood (flooded paddy test), 13 to 15 days; for Sedge, Umbrella plant response rating: Flood, 31 g ai/ha, scale 0 to 100 (0 no effect, 100 complete control)
Summary of the method: as §3

[11] = Postemergence, 125 g ai/ha, 0 to 100 scale where 0 is no effect and 100 is complete control
[12] = Postemergence, 500 g ai/ha, 0 to 100 scale, 0 = no effect, 100 = complete control, approx. ten days
[13] = Preemergence, 125 g ai/ha, 0 to 100 scale, 0 = no effect, 100 = complete control
[14] = Preemergence, 500 g ai/ha, visual injury, 0 to 100 scale (0 no effect, 100 complete control), approx. ten days
[15] = Preemergence, 500 g ai/ha, 0 to 100 scale, 0 = no effect, 100 = complete control
[16] = 62 g ai/ha, scale of 0 to 100 where 0 is no effect and 100 is complete control
[17] = 125 g ai/ha, scale 0 to 100, 0 is no effect, 100 is complete control

Cc1ccc(Cl)cc1-n1c(-c2cccc(Br)c2)ncc(C(=O)C2=C(O)CCCC2=O)c1=O [Compound 144]
80: Plant response rating, Pigweed [5, 11]
90: Plant response rating, Foxtail, Giant [2, 12] | Plant response rating, Crabgrass, Large [3, 12] | Plant response rating, Pigweed [5, 12] | Plant response rating, Pigweed [5, 14]
10: Plant response rating, Foxtail, Giant [2, 14] | Plant response rating, Crabgrass, Large [3, 13] | Plant response rating, Morningglory [4, 14]
0: Plant response rating, Barnyardgrass [1, 13] | Plant response rating, Corn (corn (Zea mays); [11]) | Plant response rating, Corn (corn (Zea mays); [13]) | Plant response rating, Corn (corn (Zea mays); [14]) | Plant response rating, Foxtail, Giant [2, 13] | Plant response rating, Morningglory [4, 13] | Plant response rating, Pigweed [5, 13] | Plant response rating, Wheat [7, 11] | Plant response rating, Wheat [7, 12] | Plant response rating, Wheat [7, 13] | Plant response rating, Wheat [7, 15] | Plant response rating, Barnyardgrass [8, 16] | Plant response rating, Barnyardgrass [8, 17] | Barnyardgrass plant response rating [8]
50: Plant response rating, Crabgrass, Large [3, 11] | Ducksalad plant response rating [9] | Sedge, Umbrella plant response rating [10]
40: Plant response rating, Foxtail, Giant [2, 11]
15: Rice plant response rating (rice (Oryza sativa))
20: Plant response rating, Barnyardgrass [1, 14] | Plant response rating, Velvetleaf [6, 13] | Plant response rating, Flood, Barnyardgrass [8] | Plant response rating, Rice (rice (Oryza sativa); [16]) | Plant response rating, Rice (rice (Oryza sativa); [17])
25: Plant response rating, Flood, Rice (rice (Oryza sativa))
70: Plant response rating, Barnyardgrass [1, 11] | Plant response rating, Morningglory [4, 12] | Plant response rating, Velvetleaf [6, 15]
30: Plant response rating, Corn (corn (Zea mays); [12]) | Plant response rating, Crabgrass, Large [3, 14] | Plant response rating, Morningglory [4, 11]
100: Plant response rating, Barnyardgrass [1, 12] | Plant response rating, Velvetleaf [6, 11] | Plant response rating, Velvetleaf [6, 12] | Plant response rating, Flood, Ducksalad [9] | Plant response rating, Flood, Sedge, Umbrella [10]
60: Plant response rating, Ducksalad [9, 16]
65: Plant response rating, Sedge, Umbrella [10, 16]
75: Plant response rating, Ducksalad [9, 17]
95: Plant response rating, Sedge, Umbrella [10, 17]

CCn1c(-c2cccc(Cl)c2)ncc(C(=O)C2=C(O)CCCC2=O)c1=O [Compound 145]
40: Plant response rating, Corn (corn (Zea mays); [12])
30: Plant response rating, Corn (corn (Zea mays); [11]) | Plant response rating, Foxtail, Giant [2, 13]
60: Plant response rating, Foxtail, Giant [2, 11] | Plant response rating, Sedge, Umbrella [10, 17]
50: Plant response rating, Crabgrass, Large [3, 13]
90: Plant response rating, Barnyardgrass [1, 14] | Plant response rating, Crabgrass, Large [3, 12] | Plant response rating, Morningglory [4, 11] | Plant response rating, Morningglory [4, 12] | Plant response rating, Velvetleaf [6, 13]
80: Plant response rating, Foxtail, Giant [2, 12] | Plant response rating, Morningglory [4, 14] | Plant response rating, Flood, Ducksalad [9] | Plant response rating, Ducksalad [9, 16] | Plant response rating, Ducksalad [9, 17] | Ducksalad plant response rating [9] | Plant response rating, Flood, Sedge, Umbrella [10]
25: Plant response rating, Flood, Barnyardgrass [8]
0: Plant response rating, Corn (corn (Zea mays); [13]) | Plant response rating, Morningglory [4, 13] | Plant response rating, Wheat [7, 11] | Plant response rating, Wheat [7, 12] | Plant response rating, Wheat [7, 13] | Plant response rating, Barnyardgrass [8, 16] | Plant response rating, Barnyardgrass [8, 17] | Barnyardgrass plant response rating [8] | Plant response rating, Flood, Rice (rice (Oryza sativa)) | Plant response rating, Rice (rice (Oryza sativa); [16]) | Plant response rating, Rice (rice (Oryza sativa); [17]) | Rice plant response rating (rice (Oryza sativa)) | Plant response rating, Sedge, Umbrella [10, 16] | Sedge, Umbrella plant response rating [10]
20: Plant response rating, Barnyardgrass [1, 13] | Plant response rating, Corn (corn (Zea mays); [14]) | Plant response rating, Wheat [7, 15]
70: Plant response rating, Barnyardgrass [1, 11] | Plant response rating, Foxtail, Giant [2, 14] | Plant response rating, Crabgrass, Large [3, 11] | Plant response rating, Pigweed [5, 13]
100: Plant response rating, Barnyardgrass [1, 12] | Plant response rating, Crabgrass, Large [3, 14] | Plant response rating, Pigweed [5, 11] | Plant response rating, Pigweed [5, 12] | Plant response rating, Pigweed [5, 14] | Plant response rating, Velvetleaf [6, 11] | Plant response rating, Velvetleaf [6, 12] | Plant response rating, Velvetleaf [6, 15]

— patent US8952024B2, “Herbicidal pyrimidone derivatives” (E I du Pont de Nemours and Company, priority 2009, dated 2015)
